# Read-outs that look alike come from different tables or passages of the source.
# Columns and labels:
# Experiment in all cases: Test E pre-/postemergence plant response
# Assay type in all cases: in vivo
# [1] = system: windgrass (Apera spica-venti); settings: scale 0 to 100, read-out: Plant response rating, Windgrass; for pest or weed control at 16 g/ha: 16 g ai/ha; for pest or weed control at 62 g/ha: 62 g ai/ha; for pest or weed control at 125 g/ha: 125 g ai/ha
# Method in brief: (§1)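 Visual scores on a 0–100 scale (100 = complete control) were assigned against untreated controls 7–21 days after treatment in a controlled environment. Compounds, formulated with solvent plus surfactant, were applied to pre-emergence silt-loam sowings or to 1- to 4-leaf plants (2–18 cm) in potting medium.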
# [2] = system: wild radish (Raphanus raphanistrum); settings: scale 0 to 100, read-out: Plant response rating, Radish, Wild; for pest or weed control at 16 g/ha: 16 g ai/ha; for pest or weed control at 31 g/ha: 31 g ai/ha; for pest or weed control at 62 g/ha: 62 g ai/ha; for pest or weed control at 125 g/ha: 125 g ai/ha
# Method in brief: as §1
# [3] = system: Italian ryegrass (Lolium multiflorum); settings: scale 0 to 100, read-out: Plant response rating, Ryegrass, Italian; for pest or weed control at 16 g/ha: 16 g ai/ha; for pest or weed control at 31 g/ha: 31 g ai/ha; for pest or weed control at 62 g/ha: 62 g ai/ha; for pest or weed control at 125 g/ha: 125 g ai/ha
# Method in brief: as §1
# [4] = system: chickweed (common chickweed, Stellaria media); settings: scale 0 to 100, read-out: Plant response rating, Chickweed; for pest or weed control at 16 g/ha: 16 g ai/ha; for pest or weed control at 31 g/ha: 31 g ai/ha; for pest or weed control at 62 g/ha: 62 g ai/ha; for pest or weed control at 125 g/ha: 125 g ai/ha
# Method in brief: as §1
# [5] = system: bluegrass (annual bluegrass, Poa annua); settings: scale 0 to 100, read-out: Plant response rating, Bluegrass; for pest or weed control at 16 g/ha: 16 g ai/ha; for pest or weed control at 31 g/ha: 31 g ai/ha; for pest or weed control at 62 g/ha: 62 g ai/ha; for pest or weed control at 125 g/ha: 125 g ai/ha
# Method in brief: as §1
# [6] = system: galium (catchweed bedstraw, Galium aparine); settings: scale 0 to 100, read-out: Plant response rating, Galium; for pest or weed control at 16 g/ha: 16 g ai/ha; for pest or weed control at 31 g/ha: 31 g ai/ha; for pest or weed control at 62 g/ha: 62 g ai/ha; for pest or weed control at 125 g/ha: 125 g ai/ha
# Method in brief: as §1
# [7] = system: downy bromegrass (Bromus tectorum); settings: scale 0 to 100, read-out: Plant response rating, Bromegrass, Downy; for pest or weed control at 16 g/ha: 16 g ai/ha; for pest or weed control at 31 g/ha: 31 g ai/ha; for pest or weed control at 62 g/ha: 62 g ai/ha; for pest or weed control at 125 g/ha: 125 g ai/ha
# Method in brief: as §1
# kochia (Kochia scoparia) = settings: Bassia scoparia, scale 0 to 100, read-out: Plant response rating, Kochia; for pest or weed control at 16 g/ha: 16 g ai/ha; for pest or weed control at 31 g/ha: 31 g ai/ha; for pest or weed control at 62 g/ha: 62 g ai/ha; for pest or weed control at 125 g/ha: 125 g ai/ha
# Method in brief: as §1
# [8] = system: oilseed rape (Brassica napus); settings: scale 0 to 100, read-out: Plant response rating, Oilseed Rape; for plant injury at 16 g/ha: 16 g ai/ha; for plant injury at 31 g/ha: 31 g ai/ha; for plant injury at 62 g/ha: 62 g ai/ha; for plant injury at 125 g/ha: 125 g ai/ha
# Method in brief: as §1
# [9] = system: winter barley (Hordeum vulgare); settings: scale 0 to 100, read-out: Plant response rating, Barley, Winter; for plant injury at 16 g/ha: 16 g ai/ha; for plant injury at 31 g/ha: 31 g ai/ha; for plant injury at 62 g/ha: 62 g ai/ha; for plant injury at 125 g/ha: 125 g ai/ha
# Method in brief: as §1
# [10] = system: wild buckwheat (Polygonum convolvulus); settings: Fallopia convolvulus, scale 0 to 100, read-out: Plant response rating, Buckwheat, Wild; for pest or weed control at 16 g/ha: 16 g ai/ha; for pest or weed control at 31 g/ha: 31 g ai/ha; for pest or weed control at 62 g/ha: 62 g ai/ha; for pest or weed control at 125 g/ha: 125 g ai/ha
# Method in brief: as §1
compound,measurement,setting,value
"Fc1cccc(Oc2ncc(Br)cn2)c1-c1cc(C(F)F)no1 [Compound 145, 5-bromo-2-[2-[3-(difluoromethyl)-5-isoxazolyl]-3-fluorophenoxy]pyrimidine]",pest or weed control at 16 g/ha,"[1]; post-emergence, Postemergence",5%
same,pest or weed control at 31 g/ha,"[1]; post-emergence, 31 g ai/ha, Postemergence",10%
same,pest or weed control at 62 g/ha,"[1]; post-emergence, Postemergence",20%
same,pest or weed control at 125 g/ha,"[1]; post-emergence, Postemergence",60%
same,pest or weed control at 16 g/ha,"[1]; pre-emergence, Preemergence",10%
same,pest or weed control at 62 g/ha,"[1]; pre-emergence, Preemergence",75%
same,pest or weed control at 125 g/ha,"[1]; pre-emergence, Preemergence",98%
same,pest or weed control at 16 g/ha,"[2]; post-emergence, Postemergence",95%
same,pest or weed control at 31 g/ha,"[2]; post-emergence, Postemergence",100%
same,pest or weed control at 62 g/ha,"[2]; post-emergence, Postemergence",100%
same,pest or weed control at 125 g/ha,"[2]; post-emergence, Postemergence",100%
same,pest or weed control at 16 g/ha,"[2]; pre-emergence, Preemergence",15%
same,pest or weed control at 31 g/ha,"[2]; pre-emergence, Preemergence",15%
same,pest or weed control at 62 g/ha,"[2]; pre-emergence, Preemergence",85%
same,pest or weed control at 125 g/ha,"[2]; pre-emergence, Preemergence",100%
same,pest or weed control at 16 g/ha,"[3]; post-emergence, Postemergence",5%
same,pest or weed control at 31 g/ha,"[3]; post-emergence, Postemergence",10%
same,pest or weed control at 62 g/ha,"[3]; post-emergence, Postemergence",25%
same,pest or weed control at 125 g/ha,"[3]; post-emergence, Postemergence",40%
same,pest or weed control at 16 g/ha,"[3]; pre-emergence, Preemergence",10%
same,pest or weed control at 31 g/ha,"[3]; pre-emergence, Preemergence",20%
same,pest or weed control at 62 g/ha,"[3]; pre-emergence, Preemergence",50%
same,pest or weed control at 125 g/ha,"[3]; pre-emergence, Preemergence",70%
same,pest or weed control at 16 g/ha,"[4]; post-emergence, Postemergence",80%
same,pest or weed control at 31 g/ha,"[4]; post-emergence, Postemergence",85%
same,pest or weed control at 62 g/ha,"[4]; post-emergence, Postemergence",100%
same,pest or weed control at 125 g/ha,"[4]; post-emergence, Postemergence",95%
same,pest or weed control at 16 g/ha,"[4]; pre-emergence, Preemergence",100%
same,pest or weed control at 31 g/ha,"[4]; pre-emergence, Preemergence",100%
same,pest or weed control at 62 g/ha,"[4]; pre-emergence, Preemergence",100%
same,pest or weed control at 125 g/ha,"[4]; pre-emergence, Preemergence",100%
same,pest or weed control at 16 g/ha,"[5]; post-emergence, Postemergence",15%
same,pest or weed control at 31 g/ha,"[5]; post-emergence, Postemergence",60%
same,pest or weed control at 62 g/ha,"[5]; post-emergence, Postemergence",65%
same,pest or weed control at 125 g/ha,"[5]; post-emergence, Postemergence",70%
same,pest or weed control at 16 g/ha,"[5]; pre-emergence, Preemergence",0%
same,pest or weed control at 31 g/ha,"[5]; pre-emergence, Preemergence",0%
same,pest or weed control at 62 g/ha,"[5]; pre-emergence, Preemergence",10%
same,pest or weed control at 125 g/ha,"[5]; pre-emergence, Preemergence",90%
same,pest or weed control at 16 g/ha,"[6]; post-emergence, Postemergence",95%
same,pest or weed control at 31 g/ha,"[6]; post-emergence, Postemergence",95%
same,pest or weed control at 62 g/ha,"[6]; post-emergence, Postemergence",98%
same,pest or weed control at 125 g/ha,"[6]; post-emergence, Postemergence",100%
same,pest or weed control at 16 g/ha,"[6]; pre-emergence, Preemergence",25%
same,pest or weed control at 31 g/ha,"[6]; pre-emergence, Preemergence",100%
same,pest or weed control at 62 g/ha,"[6]; pre-emergence, Preemergence",100%
same,pest or weed control at 125 g/ha,"[6]; pre-emergence, Preemergence",100%
same,pest or weed control at 16 g/ha,"[7]; post-emergence, Postemergence",25%
same,pest or weed control at 31 g/ha,"[7]; post-emergence, Postemergence",35%
same,pest or weed control at 62 g/ha,"[7]; post-emergence, Postemergence",55%
same,pest or weed control at 125 g/ha,"[7]; post-emergence, Postemergence",55%
same,pest or weed control at 16 g/ha,"[7]; pre-emergence, Preemergence",10%
same,pest or weed control at 31 g/ha,"[7]; pre-emergence, Preemergence",20%
same,pest or weed control at 62 g/ha,"[7]; pre-emergence, Preemergence",35%
same,pest or weed control at 125 g/ha,"[7]; pre-emergence, Preemergence",60%
same,pest or weed control at 16 g/ha,"kochia (Kochia scoparia); post-emergence, Postemergence",98%
same,pest or weed control at 31 g/ha,"kochia (Kochia scoparia); post-emergence, Postemergence",100%
same,pest or weed control at 62 g/ha,"kochia (Kochia scoparia); post-emergence, Postemergence",100%
same,pest or weed control at 125 g/ha,"kochia (Kochia scoparia); post-emergence, Postemergence",100%
same,pest or weed control at 16 g/ha,"kochia (Kochia scoparia); pre-emergence, Preemergence",60%
same,pest or weed control at 31 g/ha,"kochia (Kochia scoparia); pre-emergence, Preemergence",100%
same,pest or weed control at 62 g/ha,"kochia (Kochia scoparia); pre-emergence, Preemergence",100%
same,pest or weed control at 125 g/ha,"kochia (Kochia scoparia); pre-emergence, Preemergence",100%
same,plant injury at 16 g/ha,"[8]; post-emergence, Postemergence",70%
same,plant injury at 31 g/ha,"[8]; post-emergence, Postemergence",100%
same,plant injury at 62 g/ha,"[8]; post-emergence, Postemergence",100%
same,plant injury at 125 g/ha,"[8]; post-emergence, Postemergence",100%
same,plant injury at 16 g/ha,"[8]; pre-emergence, Preemergence",50%
same,plant injury at 31 g/ha,"[8]; pre-emergence, Preemergence",100%
same,plant injury at 62 g/ha,"[8]; pre-emergence, Preemergence",100%
same,plant injury at 125 g/ha,"[8]; pre-emergence, Preemergence",100%
same,plant injury at 16 g/ha,"[9]; post-emergence, Postemergence",15%
same,plant injury at 31 g/ha,"[9]; post-emergence, Postemergence",15%
same,plant injury at 62 g/ha,"[9]; post-emergence, Postemergence",30%
same,plant injury at 125 g/ha,"[9]; post-emergence, Postemergence",40%
same,plant injury at 16 g/ha,"[9]; pre-emergence, Preemergence",10%
same,plant injury at 31 g/ha,"[9]; pre-emergence, Preemergence",15%
same,plant injury at 62 g/ha,"[9]; pre-emergence, Preemergence",30%
same,plant injury at 125 g/ha,"[9]; pre-emergence, Preemergence",85%
same,pest or weed control at 16 g/ha,"[10]; post-emergence, Postemergence",100%
same,pest or weed control at 31 g/ha,"[10]; post-emergence, Postemergence",100%
same,pest or weed control at 62 g/ha,"[10]; post-emergence, Postemergence",100%
same,pest or weed control at 125 g/ha,"[10]; post-emergence, Postemergence",100%
same,pest or weed control at 16 g/ha,"[10]; pre-emergence, Preemergence",100%
same,pest or weed control at 31 g/ha,"[10]; pre-emergence, Preemergence",100%
same,pest or weed control at 62 g/ha,"[10]; pre-emergence, Preemergence",85%
same,pest or weed control at 125 g/ha,"[10]; pre-emergence, Preemergence",100%
